According to article PMC7926928, “Preliminary Investigation of the Antioxidant, Anti-Diabetic, and Anti-Inflammatory Activity of Enteromorpha intestinalis Extracts” (Molecules, 2021):

Tested on: T1, trypsin
T1 construct: gene PRSS1
Assay: casein digestion, absorbance at […] nm
Assay type: biochemical
Settings: casein 0.8%, 20 mM Tris-HCl pH 7.4, 37 °C, 20 min

SMILES: CC(=O)Oc1ccccc1C(=O)O [acetylsalicylic acid]
- Acetylsalicylic Acid: 5.11 ± 0.97 µg/mL
